Data published in the supplement of paper PMC11208160.

assay: recombinant UMI read abundance after kanamycin selection (control-corrected) (log10(CPM+1)); higher = more efficient recombination; extreme values may be limits of the assay; sequences stand for … in AGTGCAGAGAAAATCGGCCAGTTTTCTCTGCCTGCAGTCCGCATGCCGTGGGACCCCTTGGGTTCTAACCTGTTGCCTAGATTTATGCAGCGGACTGCCTTTCTCCCAAAGTGATAAACCGG…AGGTTGGTTTCACT; site = the 11-nt donor
How it was run: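 Values are reported as log10(CPM+1), obtained by converting sequencing counts to CPM, averaging replicates and scaling by control-derived factors. The counts came from recombinant UMIs amplified by PCR across the donor–target junction. These UMIs came from a pooled Escherichia coli screen of donor and donor-binding-loop pairs for the IS621 bridge recombinase, plated with IPTG (0.07 mM) plus kanamycin or left unselected, in two replicates each.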
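Further: IS621 bridge recombinase in Escherichia coli cells against a fixed T5 target plasmid.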

Row | Sequence | recombinant UMI read abundance (log10)
1 | ATCCTTTCATGGACCGGTTTTCCCGGTAATCCGTATTTGAC (site AGCCTTTCTGT) | 0
2 | ATCCTTTCATGGACCGGTTTTCCCGGTAATCCGTATTTGAC (site ATCCTTTCTGT) | 0
3 | ATCGAATCATGGACCGGTTTTCCCGGTAATCCGTATTTGAA (site ATCGAATCTTT) | 2.58
4 | ATCGCCTCATGGACCGGTTTTCCCGGTAATCCGTATTTGGG (site ATCGCCTCTCC) | 0.29
5 | ATCGCGTCATGGACCGGTTTTCCCGGTAATCCGTATTTGAA (site ATCGCGTCTTT) | 2.01
6 | ATCGTGCCATGGACCGGTTTTCCCGGTAATCCGTATTTGTT (site ATCGTGCCTAA) | 0.0076
7 | ATCTAAACATGGACCGGTTTTCCCGGTAATCCGTATTTGAC (site ATCTAAACTGT) | 2.72
8 | ATCTAAACATGGACCGGTTTTCCCGGTAATCCGTATTTGAC (site ATCTACACTGT) | 0.25
9 | ATCTAAACATGGACCGGTTTTCCCGGTAATCCGTATTTGAC (site ATCTAGACTGT) | 0
10 | ATCTAAACATGGACCGGTTTTCCCGGTAATCCGTATTTGAC (site ATCTATACTGT) | 0.00453
11 | ATCTACACATGGACCGGTTTTCCCGGTAATCCGTATTTGAC (site ATCTAAACTGT) | 1.21
12 | ATCTACACATGGACCGGTTTTCCCGGTAATCCGTATTTGAC (site ATCTACACTGT) | 2.83
13 | ATCTACACATGGACCGGTTTTCCCGGTAATCCGTATTTGAC (site ATCTAGACTGT) | 0
14 | ATCTACACATGGACCGGTTTTCCCGGTAATCCGTATTTGAC (site ATCTATACTGT) | 0.824
15 | ATCTAGACATGGACCGGTTTTCCCGGTAATCCGTATTTGAG (site ATCTAGACTCT) | 1.31
16 | ATCTAGGCATGGACCGGTTTTCCCGGTAATCCGTATTTGGC (site ATATAGGCTGC) | 0
17 | ATCTAGGCATGGACCGGTTTTCCCGGTAATCCGTATTTGGC (site ATCTAGGCTGC) | 0
18 | ATCTAGGCATGGACCGGTTTTCCCGGTAATCCGTATTTGGC (site ATGTAGGCTGC) | 0
19 | ATCTAGGCATGGACCGGTTTTCCCGGTAATCCGTATTTGGC (site ATTTAGGCTGC) | 0
20 | ATCTATACATGGACCGGTTTTCCCGGTAATCCGTATTTGAG (site ATCTATACTAT) | 0.478
21 | ATCTATACATGGACCGGTTTTCCCGGTAATCCGTATTTGAG (site ATCTATACTCT) | 1.31
22 | ATCTATACATGGACCGGTTTTCCCGGTAATCCGTATTTGAG (site ATCTATACTGT) | 0
23 | ATCTATACATGGACCGGTTTTCCCGGTAATCCGTATTTGAG (site ATCTATACTTT) | 0.0268

Row | Sequence | recombinant UMI read abundance (log10)
24 | ATCTATACATGGACCGGTTTTCCCGGTAATCCGTATTTGGC (site ATCTATACTGA) | 1.09
25 | ATCTATACATGGACCGGTTTTCCCGGTAATCCGTATTTGGC (site ATCTATACTGC) | 2.23
26 | ATCTATACATGGACCGGTTTTCCCGGTAATCCGTATTTGGC (site ATCTATACTGG) | 0
27 | ATCTATACATGGACCGGTTTTCCCGGTAATCCGTATTTGGC (site ATCTATACTGT) | 2.09
28 | ATCTGTACATGGACCGGTTTTCCCGGTAATCCGTATTTGAC (site ATCTATACTGT) | 0
29 | ATCTGTACATGGACCGGTTTTCCCGGTAATCCGTATTTGAC (site ATCTCTACTGT) | 0
30 | ATCTGTACATGGACCGGTTTTCCCGGTAATCCGTATTTGAC (site ATCTGTACTGT) | 1.31
31 | ATCTGTACATGGACCGGTTTTCCCGGTAATCCGTATTTGAC (site ATCTTTACTGT) | 0
32 | ATCTGTCCATGGACCGGTTTTCCCGGTAATCCGTATTTGAT (site ATCTGTCCTAT) | 0.0326
33 | ATGAAGGCATGGACCGGTTTTCCCGGTAATCCGTATTTGCA (site AGGAAGACTTG) | 0.763
34 | ATGAAGGCATGGACCGGTTTTCCCGGTAATCCGTATTTGCA (site ATGAAGGCTTG) | 2.91
35 | ATGACACCATGGACCGGTTTTCCCGGTAATCCGTATTTGGT (site ATGACACCTAC) | 0.0397
36 | ATGATCCCATGGACCGGTTTTCCCGGTAATCCGTATTTGCC (site ATGATCCCTGG) | 0
37 | ATGCACGCATGGACCGGTTTTCCCGGTAATCCGTATTTGGG (site AAGCACGCTCC) | 0.017
38 | ATGCACGCATGGACCGGTTTTCCCGGTAATCCGTATTTGGG (site ACGCACGCTCC) | 0.0179
39 | ATGCACGCATGGACCGGTTTTCCCGGTAATCCGTATTTGGG (site AGGCACGCTCC) | 0.0274
40 | ATGCACGCATGGACCGGTTTTCCCGGTAATCCGTATTTGGG (site ATGCACGCTCC) | 0.239
41 | ATGCAGCCATGGACCGGTTTTCCCGGTAATCCGTATTTGAG (site ATGCAGCCTCT) | 0.00247
42 | ATGCCCGCATGGACCGGTTTTCCCGGTAATCCGTATTTGCA (site ATGCCCGCTTG) | 2.01
43 | ATGCCGACATGGACCGGTTTTCCCGGTAATCCGTATTTGCA (site ATGCCGACTTG) | 1.91
44 | ATGCGAGCATGGACCGGTTTTCCCGGTAATCCGTATTTGCT (site ATGCGAGCTAG) | 2.5
45 | ATGCTTGCATGGACCGGTTTTCCCGGTAATCCGTATTTGCT (site ATGCTTGCTAG) | 0.679
46 | ATGGAAACATGGACCGGTTTTCCCGGTAATCCGTATTTGCA (site ATGGAAACTTG) | 2.32

Row | Sequence | recombinant UMI read abundance (log10)
47 | ATGGAAACATGGACCGGTTTTCCCGGTAATCCGTATTTGCA (site CTGGAAACTTG) | 1.6
48 | ATGGAAACATGGACCGGTTTTCCCGGTAATCCGTATTTGCA (site GTGGAAACTTG) | 0
49 | ATGGAAACATGGACCGGTTTTCCCGGTAATCCGTATTTGCA (site TTGGAAACTTG) | 0.684
50 | ATGGCATCATGGACCGGTTTTCCCGGTAATCCGTATTTGCG (site ATGGCATCTCG) | 2.06
51 | ATGGCATCATGGACCGGTTTTCCCGGTAATCCGTATTTGCT (site ATGGCATCTAG) | 1.83
52 | ATGGCCGCATGGACCGGTTTTCCCGGTAATCCGTATTTGGC (site ATGGCCGCTGC) | 2.53
53 | ATGGTCCCATGGACCGGTTTTCCCGGTAATCCGTATTTGAC (site ATGGTCCCTGT) | 1.87
54 | ATGGTCGCATGGACCGGTTTTCCCGGTAATCCGTATTTGAC (site ATGGTCGCTGT) | 3.13
55 | ATGTACACATGGACCGGTTTTCCCGGTAATCCGTATTTGAG (site ATGTACACTCT) | 1.6
56 | ATGTAGGCATGGACCGGTTTTCCCGGTAATCCGTATTTGGT (site ATGTAGGCTAC) | 1.27
57 | ATGTAGGCATGGACCGGTTTTCCCGGTAATCCGTATTTGGT (site ATGTAGGCTCC) | 0.0125
58 | ATGTAGGCATGGACCGGTTTTCCCGGTAATCCGTATTTGGT (site ATGTAGGCTGC) | 1.73
59 | ATGTAGGCATGGACCGGTTTTCCCGGTAATCCGTATTTGGT (site ATGTAGGCTTC) | 0.0176
60 | ATGTCGCCATGGACCGGTTTTCCCGGTAATCCGTATTTGCC (site ATGTCGCCTGG) | 0
61 | ATGTCGGCATGGACCGGTTTTCCCGGTAATCCGTATTTGTC (site ATGTCGGCTGA) | 2.23
62 | ATGTGGACATGGACCGGTTTTCCCGGTAATCCGTATTTGAC (site ATGTGGACTGT) | 2.94
63 | ATGTGGGCATGGACCGGTTTTCCCGGTAATCCGTATTTGGC (site ATGTAGGCTGC) | 2.78
64 | ATGTGGGCATGGACCGGTTTTCCCGGTAATCCGTATTTGGC (site ATGTCGGCTGC) | 0
65 | ATGTGGGCATGGACCGGTTTTCCCGGTAATCCGTATTTGGC (site ATGTGGGCTGC) | 3.01
66 | ATGTGGGCATGGACCGGTTTTCCCGGTAATCCGTATTTGGC (site ATGTTGGCTGC) | 0.0921
67 | ATGTGTGCATGGACCGGTTTTCCCGGTAATCCGTATTTGAC (site ATGTGTGCTGT) | 2.78
68 | ATGTTACCATGGACCGGTTTTCCCGGTAATCCGTATTTGGT (site ATGTTACCTAC) | 0.0171
